Test results from PMC8414802, “Hair Cell Generation in Cochlear Culture Models Mediated by Novel γ-Secretase Inhibitors” (Frontiers in Cell and Developmental Biology, 2021).
Where “and” joins values, the source holds several entries; their conditions need not be identical. Equal entries are not always repeated.

Assays:
[1] = system: Myo7a+ hair cells and Sox2+ cells in sisomicin-damaged rat cochlear organoids; assay: Rat cochlear organoids after sisomicin damage; type: cell-based
Experimental: On day 0, the cochlear sensory epithelium was dissected and the OC was separated from the modiolus and stria vascularis, as described above, from either Wistar rat pups (P2), Lgr5-GFP mice (P0–P2) or Atoh1-GFP mice (P0–P2). To separate the sensory epithelial layer from underlying mesenchyme and neurons, the OC was placed in a 100 μl drop of Matrisperse Cell Recovery Solution (Corning) for 1 h at RT, then delaminated with the aid of forceps. Gentle enzymatic dissociation of hair cells and supporting cells followed with 100 μl drop of TrypLE (Gibco), 20 min at 37°C, then mechanical trituration in DMEM/F12. The cell suspension was centrifuged for 5 min at 500 g at 4°C and resuspended in DMEM/F12 medium supplemented with B27 and N2 (Invitrogen), EGF (50 ng/ml), bFGF (50 ng/ml), IGF (25 ng/ml), CHIR99021 (GSK-3β inhibitor, 3 μM, Merck), valproic acid (HDAC inhibitor, 1 mM, Sigma), 2-phospho-L-ascorbic acid (280 μM, Stemcell Technologies) and 0.01% ampicillin (Sigma). Cells were plated at 2,000 cells per well on 96 wells plate (Corning Costar; ultra-low attachment, round-bottom) to allow aggregation at 37°C. On day 1, Matrigel (GF-depleted, Corning; 2% stock) was added to a final concentration of 0.18 mg/ml. […]
For staining and imaging, organoids were allowed to adhere ON onto transwell-permeable support membranes (Corning) in 12-well plates coated with 100% Matrigel. […] Compiled Z-projections were processed (FIJI, ver2.0) and hair cells quantified on individual planes with manual cell counter plugin, by evaluation of cytosolic expression and nuclear exclusion of Myo7a. […]
Finally, the regenerative potential of CPD3 was assessed with rat cochlear organoids testing the efficacy of CPD3 to transdifferentiate any remaining supporting cells after ototoxic damage. […] A decrease in Myo7a+ hair cells was detected 7 days following sisomicin damage (Figure 6D). […]

[2] = Inner ear pharmacokinetics after transtympanic administration (perilymph, plasma; LC-MS/MS); type: in vivo, guinea pig
Experimental: Female albino Hartley guinea pigs, 250 g, from Charles River (France), housed in macrolon cages (2/cage; Innocage Rat Static-Innovive, Paris) with filter air, were maintained at 22 ± 2°C on a 12-h light cycle with standard A04C (UAR) diet and water “ad libitum.” Lgr5-GFP mice containing an EGFP-IRES-CreERT2 knock-in allele at the Lgr5 locus were obtained from the Jackson Labs (Stock 008875, C57BL/6J/RccHsd background). Atoh1-nGFP transgenic mice (C57Bl/6J background) were from Jane Johnson ([Lumpkin et al., 2003]). Wistar rats were obtained from Charles River.
γ-secretase inhibitors pharmacokinetic studies tested CPD3, CPD8 (Eli Lilly) or LY411575 (Stemcell Technologies) each formulated at 3.4 mg/ml in the following vehicles, 10% Poloxamer 338 (Sigma), 20% Poloxamer 338, 70% PEG400 (Sigma) or 1% hyaluronic acid (HA-700; Lifecore, Chaska, MN, United States) all prepared with PBS (pH 6.2). A single 70 μl injection of the formulated compound (total dose, 870 μg/kg) was delivered to the middle ear space of isoflurane-anesthetized guinea pigs by transtympanic administration. Perilymph from treated animals (perilymph volumes, >2 μl) was collected at time points up to 48 h post-administration (CILcare, Montpellier, France). Briefly, concentrations of each compound in perilymph and plasma, as well as controls prepared in artificial perilymph, were measured by LC-MS/MS on an AB Sciex, API 4000 mass spectrometer using an Onyx C18 5 μm 50^∗2.0 mm separation column (Oroxcell, Romainville, France).
To verify this, in vivo compound concentrations were measured in perilymph of guinea pigs after intratympanic delivery of GSIs into the middle ear. Initially, four vehicle formulations, with different physical properties, were tested, poloxamer 338 (POX; at 10% or 20%), hyaluronic acid (HA), or polyethylene glycol 400 (PEG). For this comparison only one GSI was prepared in each formulation (CPD3, 3.4 mg/ml) and a single dose was injected into the middle ear. Perilymph and plasma were sampled for 48 h (Figure 1D). […] Next, using only 10% POX as vehicle, inner ear adsorption was compared between CPD3, CPD8, and LY411575 by transtympanic injections (Figure 1D, inset). […] Each compound achieved levels several folds above their respective IC50s. The mean maximal perilymph concentration of CPD3 at 0.5 h post-dosing was 85,489 ng/ml (183 μM), then declined at 1 h to 12,928 ng/ml (27.7 μM), and at 6 h to 12,652 ng/ml (27.1 μM). GSIs in plasma samples were not detected (data not shown).

[3] = female, Hartley, guinea pig, perilymph, other: transtympanic (middle ear injection), 870 μg/kg, 10% POX vehicle, transtympanic

For `COc1ccc2c(c1)N1CCC(C)(C)C1=CC(=O)[C@H]2NC(=O)[C@H](C)NC(=O)CCC(F)(F)F` [CPD3], the “Total number of Sox2 positive cells in the organoid” value ([1]; after sisomicin damage) was “did not change”, the “Number of Myo7a+/Sox2+ hair cells” value ([1]; after sisomicin damage, p < 0.001) was “did increase” and the “Myo7a+ hair cells after sisomicin damage” value ([1]; sisomicin 500 μM 2 h at day 20, 7 days culture, vs sisomicin only, p < 0.001) was “significant increase”. The “Time at which mean maximal perilymph concentration was reached” value ([2]; 10% POX and 20% POX formulations, post-dosing) was 0.5 h, the “Mean maximal perilymph concentration at 0.5 h post-dosing” value ([2]; 10% POX vehicle, transtympanic) was 85,489 ng/ml and 183 μM and the Perilymph concentrations quantifiable ([2]; 10% POX, sampled at 0.5, 1 and 6 h post-dosing) was “quantifiable at all time points”. For the same molecule, the concentration at 1 h [2, 3] was 12900 ng/mL and 27.7 µM, the concentration at 6 h [2, 3] was 12700 ng/mL and 27.1 µM and the concentration at 48 h ([2]; female, Hartley, guinea pig, perilymph, other: transtympanic (middle ear injection), 870 μg/kg, single transtympanic dose 3.4 mg/ml, 70 μl, span over the vehicle formulations (10% POX, 20% POX, HA, PEG400)) was 485 ng/mL to 1000 ng/mL and 1 µM to 2.1 µM.
